The target of assay [1] is T1, human D1 receptor (Homo sapiens, UniProt P21728).
T1 construct: gene DRD1; human D1
Briefly: binding assay (method of Gray et al., […]). Format: cell-based.

In assay [2] the target is T2, non-human primate D1 receptor (Macaca fascicularis, UniProt G7P6Y1).
T2 construct: native receptor in striatal membrane homogenate
Briefly: radioligand competition binding. In kind it is biochemical. The settings on record: 1.0 nM [3H]-SCH23390, striatal membranes, 4 mM MgSO4, 0.5 mM EDTA, pH 7.4, 37 °C; Cheng-Prusoff. For orientation: Displacement assays read how much labelled ligand stays bound in the presence of the test substance.

In assay [3] the target is T1, human D1 receptor. Briefly: cAMP functional assay (method of Gray et al., […]). Format: cell-based. As to conditions: partial agonist.

T1 sequence (P21728 whole entry): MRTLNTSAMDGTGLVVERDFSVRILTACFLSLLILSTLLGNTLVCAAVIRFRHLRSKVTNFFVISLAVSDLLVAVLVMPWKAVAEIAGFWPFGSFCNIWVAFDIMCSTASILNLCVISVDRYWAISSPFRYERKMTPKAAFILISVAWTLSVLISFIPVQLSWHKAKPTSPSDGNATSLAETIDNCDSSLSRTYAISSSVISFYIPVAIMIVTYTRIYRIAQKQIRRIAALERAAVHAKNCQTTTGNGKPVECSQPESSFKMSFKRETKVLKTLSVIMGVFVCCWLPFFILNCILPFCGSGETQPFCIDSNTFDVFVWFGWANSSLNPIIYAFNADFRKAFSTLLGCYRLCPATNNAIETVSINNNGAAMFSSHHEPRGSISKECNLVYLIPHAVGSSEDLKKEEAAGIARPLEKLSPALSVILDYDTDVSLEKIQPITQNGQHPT
T2 sequence (G7P6Y1 1-446): as the sequence (P21728 whole entry) above, with N311I counted along it

Turning to PF-6294, the Ki on human D1 receptor [1] worked out at 17 nM; in assay [2], 14 nM. The substance further yielded an EC50 at human D1 receptor [3] of 36 nM.

One may read the Ki as a dissociation constant, usually derived from enzyme kinetics or from competition with a known ligand. Read a high Ki as a looser hold on the target. One may read the EC50 as the concentration giving half of the maximal effect.

The record behind these values is article PMC8662559, “The Effects of a Novel Non-catechol Dopamine Partial Agonist on Working Memory in the Aged Rhesus Monkey” (Frontiers in Aging Neuroscience, 2021).
